Reference: a melting point compilation (Tetko et al.; mined from patent text by program, amines drawn as free bases though some values may be those of a salt)

| SMILES | melting point [°C] |
| --- | --- |
| COc1c(C)c(C(=O)c2ccc3[nH]c(=O)n(N)c(=O)c3c2)n2ccccc12 | 220 |
| CN(C(=O)CN(C(=O)CNC(=O)Nc1cccc(CO)c1)c1ccccc1)c1ccccc1 | 120 |
| CCCCCCCCCCC(C)(C)C(=O)Nc1c(C)c(N)c(C)c2c1OC(C)(C)C2 | 125 |
| CC(C)(C)CN1C(=O)C(=O)N(c2ccc(C#N)cc2)C1=S | 128 to 129 |
| Cc1cc2c(s1)Nc1ccccc1N=C2N1CCN[C@@H](COc2ccccc2)C1 | 64 to 81 |
| CC(C)C(=O)N1CCC(C2(c3cccc(-c4ccccc4)c3)N=C(N)N(C)C2=O)CC1 (stereo not given) | 131 to 134 |
| O=C(O)c1ccc(-c2nc(-c3cc(Cl)sc3Cl)cs2)cc1 | 266 to 267 |
| Cc1ccc(N2C(=O)C(O)=C(C(=O)c3ccc(C(C)C)cc3)C2c2ccc(N3CCOCC3)cc2)nn1 (stereo not given) | 293 to 294 |
| S=C=Nc1ccc(-c2nc(-c3cccs3)no2)cc1 | 161 to 162 |
| CC(C)(C)c1cc(NC(=O)NCc2ccc([N+](=O)[O-])cc2)cc(C(C)(C)C)c1O | 240 to 241 |
| O=C(O)c1ccc(-c2ccc(Cl)cc2)c(O)c1 | 199 |
| OCCCOc1cccc2sccc12 | 82 |
| O=C(ON1C(=O)CCC1=O)c1ccco1 | 126 to 127 |
| CCN(CC)c1ccc(C(=O)NCCNC(=O)c2ccc(N(CC)CC)cc2)cc1 | 166 to 167 |
| CC(C)C(O)(C=Cc1ccc([N+](=O)[O-])cc1)CC(=O)OCc1ccccc1 (racemic) | 64 to 65 |
| COc1cc(C)c2c(c1)C(C(=O)O)=CCC2 | 149 to 150 |
| O=C(O)COc1ccc(SCc2ccc(-c3ccc(C(F)(F)F)cc3)cc2)c2c1CCC2 | 158 to 159 |
| O=C(NCCO)c1cc(C(=O)NCCO)cc([N+](=O)[O-])c1 | 151 |
| COc1cc2nc(CO)c(CO)c(-c3ccnc(NN)c3)c2cc1OC | 225 to 227 |
| S=C(Nc1ccc(Cl)cc1)Nc1ncccc1OCc1c(Cl)cccc1Cl | 179 to 180 |
| O=C(O)c1cc([N+](=O)[O-])ccc1Nc1ccc(CCCc2ccc(Cl)c(Cl)c2)cc1 | 153 to 155 |
| NC(=S)Nc1ccc(C(F)(F)F)cn1 | 203 to 205 |
| CCC(C)(Oc1ccc(OCc2cc(-c3ccc(OCc4ccccc4)cc3)no2)cc1)C(=O)O (stereo not given) | 132 to 134 |
| Cn1ncc(N2CCCCC2)c(C=NO)c1=O | 170 to 171 |
| CCCCc1oc2ccccc2c1C(=O)N(CC)Cc1ccc2cc(OCc3nnn[nH]3)ccc2c1 | 78 to 84 |

| SMILES | melting point [°C] |
| --- | --- |
| O=C(O)CCCCCCCNC(=O)c1ccccc1NC(=O)c1ccccc1O | 124 to 125 |
| Nc1ccc(F)cc1Nc1ccc(F)cc1 | 83 to 84 |
| CC(=O)NCC1CC(c2ccc(N3CCCC3)c(F)c2)=NO1 (stereo not given) | 141 to 143 |
| CN(Cc1ccccc1)c1nccc2ccccc12 | 53.5 to 54.5 |
| O=C(CSc1nc2ccccc2[nH]1)c1ccccc1 | 167 |
| OC1(c2ccc(Cl)cc2)c2cc(Cl)c(Cl)cc2CCC1Br (stereo not given) | 103 to 104 |
| CNC(=S)NCCCSc1ncccn1 | 120 to 121 |
| CC(=O)N1CCC(Nc2nc3ccccc3n2Cc2ccc(CO)o2)CC1 | 214 |
| COc1c2c(c(OC)c(OC)c1OC)CC(CCCCOc1ccc(C(=O)O)cc1)C2 | 136 to 138 |
| O=S(=O)(Cc1ccccc1)c1c[nH]c2ccccc12 | 153 to 155 |
| Cc1c(/C=C/C(=O)c2ccc3ccccc3c2)ncn1C(c1ccccc1)(c1ccccc1)c1ccccc1 | 194 to 197 |
| Cn1nc2c(-c3ccc(Cl)cc3Cl)cccc2c1C(=O)c1ncn[nH]1 | 284 to 285 |
| COC(=O)C1Oc2ccc(Cl)cc2C(Cc2ccccc2)(c2ccccc2)O1 (stereo not given) | 110 |
| COC(=O)C(=CNc1cc(-c2ccccc2Cl)sc1C(=O)O)SC | 80 to 85 |
| CC(C)(C)OC(=O)N1CCCN(c2ccc(C(C)(C)C)cc2)CC1 | 62 to 64 |
| Cc1cccc2c(=O)n(C3CCC(=O)NC3=O)cnc12 (stereo not given) | 290 to 292 |
| O=C(O)c1csnc1-c1cccc(Cl)c1 | 215 to 216 |
| FC(F)C(F)(F)Oc1cccc(Nc2nccc(-c3c[nH]c4ccccc34)n2)c1 | 140 to 142 |
| O=C1Cc2c(cccc2OCCNCc2ccccc2)N1 | 145 to 146 |
| COc1cc(Nc2ncc(C#N)c(-c3ccc(C(C)(C)N)cc3)n2)cc(OC)c1OC | 167 to 168 |
| C=C(c1cccc(-c2cnnn2COCC)c1F)C(O)(Cn1cncn1)c1ccc(F)cc1F (stereo not given) | 136 to 138 |
| Cc1ccc(-c2nc3ccc(C#N)cn3c2CN(C)C(=O)CC(C)C)cc1 | 151 to 153 |
| COc1cc(C)c(C(=O)c2c(OC)ccc(C(F)(F)F)c2C)c(OC)c1OC | 95 to 96 |
| C(=C1CN2CCC1CC2)c1ccc(-c2ccccc2)cc1 | 107 |
| O=C(CCCC(Cl)c1ccc(Cl)cc1)Nc1ccccc1 (stereo not given) | 99 to 102 |

| SMILES | melting point [°C] |
| --- | --- |
| O=C1CC[C@@H](C(=O)Nc2ccc(-c3ncc(C(=O)O)c(O)n3)cc2)N1 | > 300 |
| CC(C(N)=S)C(O)(Cn1cncn1)c1ccc(F)cc1F (stereo not given) | 164 to 167 |
| O=C1c2ccccc2CCN1O | 95 to 96 |
| Nc1cc(OCC2CC2)c(C(=O)NC2CN3CCC2CC3)cc1Cl (stereo not given) | 183 to 185 |
| CCOc1cc(CN2CCc3cc(O)ccc3C2)cc(OCC)c1OCC | 140 to 142 |
| O=C(CCl)NCCOCCO | 130 to 132 |
| Nc1cc(-c2ccc(Cl)cc2)on1 | 141 to 143 |
| Nc1nc(F)nc2c1ncn2C1OC(CO)C(O)C1F (stereo not given) | 207 to 209 |
| CS(=O)(=O)c1ccc(-n2cc(-c3ccc(Br)cc3)nc2-c2ccc(Cl)cc2)cc1 | 145 to 148 |
| CC(C)(C)NCC(O)COc1ccccc1-c1nc(C(F)(F)F)c[nH]1 (stereo not given) | 105 to 107 |
| C=CC1CN(c2ncc(C(=O)N(C)c3cccc(C(F)(F)F)c3)c(N)n2)C(=O)N1 (stereo not given) | 203 to 204 |
| CC(C)/C=c1\[nH]c(=O)/c(=C/c2c[nH]c3ccccc23)[nH]c1=O | > 300 |
| COC(=O)c1ccc(-c2nc(-c3ccc(OC(F)F)cc3)co2)cc1 | 160 to 161 |
| Cn1nc(-c2c(Cl)cccc2Cl)nc1-c1cccs1 | 161 to 163 |
| COc1ccc(C(C)C)cc1CN[C@H]1[C@H]2CCN(C[C@@H]2C(=O)NC(C)C(N)=O)[C@H]1C(c1ccccc1)c1ccccc1 (stereo not given in full) | 243 to 245 |
| COc1cc(C)c(C(=O)c2ccc(OCc3nc(-c4ccccc4)oc3C)cc2)c(O[C@H](C)C(=O)O)c1 | 122 to 123 |
| CCCCCCC[C@H]1O[C@H]1C(=O)O | 53 to 55 |
| CNCc1cccc(COc2nc(Cl)cnc2NS(=O)(=O)c2cccc(Cl)c2Cl)c1 | 167 to 168 |
| CCOC(=O)Nc1cc2nc(O)c(O)nc2cc1Cl | > 300 |
| CS(=O)(=O)c1ccc(Oc2ccc(C(=O)c3ccccc3)cc2)nc1 | 130 to 132 |
| Cc1nc(NC(=O)c2cnn3c(C(F)(F)F)cc(-c4ccc(Cl)c(Cl)c4)nc23)sc1S(N)(=O)=O | 307 |
| COc1ccc(Cn2c(=S)[nH]c(=S)c3[nH]c(C(C)C)nc32)cc1OC1CCCC1 | 204 to 206 |
| CC1(C)c2cc(OCc3ccccc3)ccc2OC1CO (stereo not given) | 55 to 58 |
| CNS(=O)(=O)Cc1ccc2[nH]cc(CCCN3C(=O)c4ccccc4C3=O)c2c1 | 58 to 66 |
| N=c1[nH]c(=O)c2nc[nH]c2c(=O)[nH]1 | > 220 |

| SMILES | melting point [°C] |
| --- | --- |
| CC(C)(C)c1cc(-c2noc(=O)[nH]2)cc(C(C)(C)C)c1O | 189 to 191 |
| COc1ccc(-c2cc(F)c3c(c2)CC(CN)O3)cc1 (stereo not given) | > 250 |
| Oc1ccc2c(c1)c1c(n2CCCCCN2CCCCC2)-c2ccccc2SCC1 | 182 |
| Cc1cn2ccc(N)c(Br)c2n1 | 158 to 160 |
| Cc1nc(C(=O)c2ccc(Cl)cc2)sc1C | 97 |
| CN(CCc1ccc(O)c(O)c1)C(=O)OCc1ccccc1 | 105 to 106 |
| CCC(CC(O)C(CC1CCCCC1)NC(=O)C(Cc1c[nH]cn1)NC(=O)C(Cc1ccccc1)C(=O)NO)C(C)C (stereo not given) | 123 |
| CCOC(=O)C(=Cc1cccn2cc(-c3ccccc3)nc12)N=[N+]=[N-] | 136 to 138 |
| CCCCCCCN(C[C@H]1CC[C@H](CN(CCCCCCC)C(=O)Nc2ccc(N(C)C)cc2)CC1)C(=O)Nc1ccc(N(C)C)cc1 | 112 to 114 |
| CC(c1cc2ccccc2o1)N(O)C(N)=O (stereo not given) | 147 to 150 |
| CC(=O)OCc1ccc2oc(=O)c(C(=O)Oc3cc(F)ccc3Br)cc2c1 | 148 to 150 |
| Cc1oc(-c2ccccc2)nc1CCOc1ccc(Cn2cc(CCC(=O)O)c(-c3ccccc3)c2)cc1 | 147 to 148 |
| CC(C)(C)OC(=O)Nc1nc(/C(=N/OC(c2ccccc2)(c2ccccc2)c2ccccc2)C(=O)O)cs1 | 157 to 158 |
| CCCCOc1c(CNC(=O)OC(C)(C)C)n(CC(C)(C)C)c(=O)c2ccc(CO)cc12 | 92 to 93 |
| CCCc1c2nc(C(=O)OCC)cc(NC)c2cc2c(=O)cc(C(=O)OCC)oc12 | 235 to 237 |
| COc1c(F)cc(-c2cncc(OC3SCC(OC(C)=O)C(OC(C)=O)C3OC(C)=O)c2)cc1F (stereo not given) | 203 |
| CCCCn1c(COCC)nc2c(N)nc3ccc(-c4ccccc4)cc3c21 | 186 to 187 |
| COC(=O)CCCc1cc2c(Nc3cc(OC)c(OC)c(OC)c3)c(C#N)cnc2s1 | 101 to 103 |
| C=CC1OC(OC)C(OCc2ccccc2)C(OCc2ccccc2)C1OCc1ccccc1 (stereo not given) | 46 to 47 |
| Cc1ccccc1CNCCNCc1ccccc1C | 51 to 52 |
| Nn1cc(C(=O)O)c(=O)c2cc(F)c(Cl)cc21 | 274 |
| CC(=O)Nc1ccc(C(=O)N(C)Cc2cccc(-c3ccc(CC4SC(=O)NC4=O)cc3)c2)cc1 (stereo not given) | 207 |
| Oc1ccc(CCN2CCC(Cc3nc4c(O)ncnc4n3Cc3ccc(F)cc3)CC2)cc1 | 216 |
| CSC[C@H]1NC(=O)[C@@H](Cc2ccccc2)NC1=O | 246 to 247 |
| Fc1cc(Cl)ccc1-n1nc2c(c1Br)CCC2 | 106 to 110 |
